{
  "source": "ChEMBL document CHEMBL4152282",
  "about": "“Synthesis and photodynamic activities of integrin-targeting silicon(IV) phthalocyanine-cRGD conjugates” (Eur J Med Chem, 2018)",
  "key": {"[1]": {"assay": "Photostability in DMF assessed as release of singlet oxygen at 4 uM preincubated with DPBF in dark followed by irradiation with red light by DPBF decay assay", "type": "functional"}, "[2]": {"assay": "Aggregation behavior of compound in RPMI 1640 medium with 0.05% cremophor EL at 3 uM by UV-vis absorption spectra analysis", "type": "physicochemical"}, "[3]": {"system": "H22", "assay": "Dark toxicity against […] cells expressing integrin xenografted in KM mouse at 0.5 nmol/g, iv administered 12 hrs measured every other day for 14 days", "type": "organism-based", "conditions": "in vivo, 336 h; call rule not given here"}, "[4]": {"system": "MCF7", "assay": "Photocytotoxicity against human MCF7 cells with low expression of alphaVbeta3 integrin assessed as decrease in cell viability preincubated for 24 hrs followed by red light irradiation and measured after overnight incubation by MTT assay", "type": "functional, cell-based", "conditions": "MCF7, light or radiation study"}, "[5]": {"assay": "Ratio of drug level in tumor of KM mouse xenografted with […] cells expressing integrin to liver of KM mouse xenografted with […] cells at 0.5 nmol/g, iv measured after 24 hrs", "type": "ADME, organism-based, Tumor/tissue", "conditions": "in vivo"}, "[6]": {"assay": "Drug uptake in human MCF7 cells at 1 uM after 24 hrs by confocal laser scanning microscopic method", "type": "ADME, cell-based", "conditions": "mcf7, 24 h"}, "[7]": {"assay": "Aggregation behavior of compound in DMF at 1 to 6 uM by UV-vis absorption spectra analysis", "type": "physicochemical"}, "[8]": {"system": "H22", "assay": "Antitumor activity against […] cells expressing integrin xenografted in KM mouse assessed as tumor growth inhibition at 0.5 nmol/g, iv administered 12 hrs followed by irradiation with laser for 6 mins and measured after 14 days", "type": "functional"}, "[9]": {"assay": "Dark toxicity against human MCF7 cells with low expression of alphaVbeta3 integrin assessed as decrease in cell viability incubated for 2 to 24 hrs by MTT assay", "type": "cell-based"}, "[10]": {"assay": "Aggregation behavior of compound in water at 3 uM by UV-vis absorption spectra analysis", "type": "physicochemical", "conditions": "buffer"}, "[11]": {"assay": "Selectivity ratio of IC50 for human MCF7 cells with low expression of alphaVbeta3 integrin to IC50 for human HT-29 cells with high expression of alphaVbeta3 integrin preincubated for 2 hrs followed by red light irradiation and measured after overnight incubation by MTT assay", "type": "functional"}, "[12]": {"assay": "Dark toxicity against human HT-29 cells with high expression of alphaVbeta3 integrin assessed as decrease in cell viability incubated for 2 to 24 hrs by MTT assay", "type": "cell-based"}, "[13]": {"system": "HaCaT", "assay": "Photocytotoxicity against human HaCaT cells assessed as decrease in cell viability preincubated for 24 hrs followed by red light irradiation and measured after overnight incubation by MTT assay", "type": "cell-based", "conditions": "light or radiation study"}, "[14]": {"system": "HT-29", "assay": "Induction of reactive oxygen species formation in human HT-29 cells with high expression of alphaVbeta3 integrin preincubated for 2 hrs followed by incubation with DCF-DA dye for 30 mins and measured after irradiation by fluorescence assay", "type": "functional, cell-based"}, "[15]": {"system": "MCF7", "assay": "Induction of reactive oxygen species formation in human MCF7 cells with […] expression of alphaVbeta3 integrin preincubated for 2 hrs followed by incubation with DCF-DA dye for 30 mins and measured after irradiation by fluorescence assay", "type": "functional, cell-based"}, "[16]": {"system": "HT-29", "assay": "Photocytotoxicity against human HT-29 cells with high expression of alphaVbeta3 integrin assessed as decrease in cell viability preincubated for 2 hrs followed by red light irradiation and measured after overnight incubation by MTT assay", "type": "functional, cell-based", "conditions": "HT-29, light or radiation study"}, "[17]": {"system": "Mus musculus", "assay": "Drug uptake in KM mouse xenografted with […] cells at 0.5 nmol/g, iv measured up to 24 hrs by fluorescence imaging method", "type": "ADME, organism-based", "conditions": "in vivo"}, "[18]": {"system": "HaCaT", "assay": "Photocytotoxicity against human HaCaT cells assessed as decrease in cell viability preincubated for 2 hrs followed by red light irradiation and measured after overnight incubation by MTT assay", "type": "cell-based", "conditions": "light or radiation study"}, "[19]": {"system": "HT-29", "assay": "Photocytotoxicity against human HT-29 cells with high expression of alphaVbeta3 integrin assessed as decrease in cell viability preincubated for 24 hrs followed by red light irradiation and measured after overnight incubation by MTT assay", "type": "functional, cell-based", "conditions": "HT-29, light or radiation study"}, "[20]": {"assay": "Selectivity index, ratio of IC50 for photocytotoxicity against human HaCaT cells to IC50 for photocytotoxicity against human HT-29 cells with high expression of alphaVbeta3 integrin", "type": "toxicity, cell-based", "conditions": "read-out: Ratio IC50"}, "[21]": {"assay": "Ratio of drug level in tumor of KM mouse xenografted with […] cells expressing integrin to kidney of KM mouse xenografted with […] cells at 0.5 nmol/g, iv measured after 24 hrs", "type": "ADME, organism-based, Tumor/tissue", "conditions": "in vivo"}, "[22]": {"assay": "Drug uptake in tumor of KM mouse xenografted with […] cells expressing integrin at 0.5 nmol/g, iv measured after 1 to 24 hrs by fluorescence imaging method", "type": "ADME, organism-based, Neoplasm", "conditions": "in vivo"}, "[23]": {"assay": "Drug uptake in lysosome of human HT-29 cells at 1 uM incubated for 0.5 hrs by Lyso Tracker red dye-based confocal laser scanning microscopic method", "type": "ADME, subcellular", "conditions": "ht-29, 0.5 h"}, "[24]": {"system": "MCF7", "assay": "Induction of reactive oxygen species formation in human MCF7 cells with low expression of alphaVbeta3 integrin preincubated for 2 hrs followed by DCF-DA dye addition and measured after 30 mins in absence of light by fluorescence assay", "type": "cell-based", "conditions": "mcf7, 0.5 h"}, "[25]": {"system": "HT-29", "assay": "Induction of reactive oxygen species formation in human HT-29 cells with high expression of alphaVbeta3 integrin preincubated for 2 hrs followed by DCF-DA dye addition and measured after 30 mins in absence of light by fluorescence assay", "type": "cell-based", "conditions": "ht-29, 0.5 h"}, "[26]": {"system": "MCF7", "assay": "Photocytotoxicity against human MCF7 cells with low expression of alphaVbeta3 integrin assessed as decrease in cell viability preincubated for 2 hrs followed by red light irradiation and measured after overnight incubation by MTT assay", "type": "functional, cell-based", "conditions": "MCF7, light or radiation study"}, "[27]": {"assay": "Selectivity ratio of IC50 for human MCF7 cells with low expression of alphaVbeta3 integrin to IC50 for human HT-29 cells with high expression of alphaVbeta3 integrin preincubated for 24 hrs followed by red light irradiation and measured after overnight incubation by MTT assay", "type": "functional"}, "[28]": {"system": "Mus musculus", "assay": "Drug uptake in KM mouse xenografted with […] cells at 0.5 nmol/g, iv measured after 24 hrs by fluorescence imaging method", "type": "ADME, organism-based", "conditions": "in vivo"}},
  "note": "pIC50: −log10 of the molar value.",
  "data": [
    {"smiles": "N=C(N)NCCC[C@@H]1NC(=O)[C@H](Cc2cn(CCOCCOCCO[Si]3(OCCOCCOCCn4cc(C[C@@H]5NC(=O)[C@@H](Cc6ccccc6)NC(=O)[C@H](CC(=O)O)NC(=O)CNC(=O)[C@H](CCCNC(=N)N)NC5=O)nn4)n4c5c6ccccc6c4/N=C4N=C(/N=c6/c7ccccc7/c(n63)=N/C3=NC(=N\\5)/c5ccccc53)c3ccccc3\\4)nn2)NC(=O)[C@@H](Cc2ccccc2)NC(=O)[C@H](CC(=O)O)NC(=O)CNC1=O", "note": "(stereo partly drawn)", "values": [
      {"measurement": "Stability", "setting": "[1]", "value": "Unstable"},
      {"measurement": "Activity", "setting": "[2]", "value": "Not Active"},
      {"measurement": "Activity", "setting": "[3]", "value": "Non-Toxic"},
      {"measurement": "pIC50", "setting": "[4]", "value": 7.18},
      {"measurement": "Ratio", "setting": "[5]", "value": 2.1},
      {"measurement": "Drug uptake", "setting": "[6]", "value": "Not Active"},
      {"measurement": "Activity", "setting": "[7]", "value": "Not Active"},
      {"measurement": "TGI", "setting": "[8]", "value": 75, "unit": "%"},
      {"measurement": "Activity", "setting": "[9]", "value": "Non-Toxic"},
      {"measurement": "Activity", "setting": "[10]", "value": "Not Active"},
      {"measurement": "Ratio IC50", "setting": "[11]", "value": 3.33},
      {"measurement": "Activity", "setting": "[12]", "value": "Non-Toxic"},
      {"measurement": "pIC50", "setting": "[13]", "value": 7.25},
      {"measurement": "Activity", "setting": "[14]", "value": "Dose-dependent effect"},
      {"measurement": "Activity", "setting": "[15]", "value": "Dose-dependent effect"},
      {"measurement": "pIC50", "setting": "[16]", "value": 7.52},
      {"measurement": "Drug uptake", "setting": "[17]", "value": "Active"},
      {"measurement": "pIC50", "setting": "[18]", "value": 7.22},
      {"measurement": "pIC50", "setting": "[19]", "value": 7.64},
      {"measurement": "selectivity ratio", "setting": "[20]", "value": 2},
      {"measurement": "Ratio", "setting": "[21]", "value": 2},
      {"measurement": "Drug uptake", "setting": "[22]", "value": "Active"},
      {"measurement": "Drug uptake", "setting": "[23]", "value": "Active"},
      {"measurement": "Activity", "setting": "[24]", "value": "Non-Toxic"},
      {"measurement": "Activity", "setting": "[25]", "value": "Non-Toxic"},
      {"measurement": "pIC50", "setting": "[26]", "value": 7.00},
      {"measurement": "Ratio IC50", "setting": "[27]", "value": 2.87},
      {"measurement": "Drug uptake", "setting": "[28]", "value": "Not Active"}
    ]}
  ]
}
